In patent US20200079773A1, “CARBOXYLIC ACID DERIVATIVES OF PYRIDOQUINAZOLINES USEFUL AS PROTEIN KINASE INHIBITORS” (ONCOSTELLAE, S.L., priority 2017, published 2020):
pIC50: −log10 of the molar value.

What was measured:
Format in all cases: biochemical
Human MLK3 = molecular target: T1, Human MLK3 (Homo sapiens, UniProt Q16584); experiment: MLK3 activity inhibition test (Reaction Biology kit, 33P ATP filter assay); settings: MBP 10 μM, ATP 10 μM
T1 construct: purchased Reaction Biology MLK3
Procedure: MLK3 Activity Inhibition Test
Activity test was carried out using the kit from Reaction Biology (CAT #: MLK3). The test uses enzyme Human MLK3 and substrates are MBP (Myelin Basic Protein, HGNC ID:6925) 10 μM and ATP 10 μM. Other reagents are the following: Base Reaction buffer; 20 mM Hepes (pH 7.5), 10 mM MgCl2, 1 mM EGTA, 0.02% Brij35, 0.02 mg/ml BSA, 0.1 mM Na3VO4, 2 mM DTT, 1% DMSO.
The reaction was carried out following the instructions of manufacturer. Briefly, kinase/substrate pairs were prepared in reaction buffer. Compounds were delivered into the reaction, followed 20 minutes later by addition of a mixture of ATP (Sigma, St. Louis Mo.) and ^33P ATP (Perkin Elmer, Waltham Mass.) to a final concentration of 10 μM. Reactions were carried out at room temperature for 120 min, followed by spotting of the reactions onto P81 ion exchange filter paper (Whatman Inc., Piscataway, N.J.). Unbound phosphate was removed by extensive washing of filters in 0.75% phosphoric acid. […] IC50 values and curve fits were obtained using Prism (GraphPad Software).

JAK2 = molecular target: T2, JAK2 (Homo sapiens, UniProt O60674); experiment: Functional assay of protein kinases (Caliper mobility shift), JAK2; settings: ATP 300 μM, 30 min incubation
T2 construct: purchased Carna Biosciences 08-045
Procedure: (§1) Functional Assays of Protein Kinases
(§2) The functional assays of protein kinases were carried out in 384-well plates using a final volume of 30 μl. […] The reaction was reads in a “Caliper EzReader LabChip 3000” (Caliper, Hopkinton, Mass.) reader, based on electrophoretic mobility of the fluorescent substrate and the phosphorylated product.
(§3) The inhibition percentages were calculated by comparison between control reactions, for 100% of inhibition and reactions with only DMSO for 0% of inhibition.

TYK2 = molecular target: T3, TYK2 (Homo sapiens, UniProt P29597); experiment: Functional assay of protein kinases (Caliper mobility shift), TYK2; settings: ATP 20 μM, 45 min incubation
T3 construct: purchased Carna Biosciences 08-147
T3 sequence (P29597 871-1187 limits assumed): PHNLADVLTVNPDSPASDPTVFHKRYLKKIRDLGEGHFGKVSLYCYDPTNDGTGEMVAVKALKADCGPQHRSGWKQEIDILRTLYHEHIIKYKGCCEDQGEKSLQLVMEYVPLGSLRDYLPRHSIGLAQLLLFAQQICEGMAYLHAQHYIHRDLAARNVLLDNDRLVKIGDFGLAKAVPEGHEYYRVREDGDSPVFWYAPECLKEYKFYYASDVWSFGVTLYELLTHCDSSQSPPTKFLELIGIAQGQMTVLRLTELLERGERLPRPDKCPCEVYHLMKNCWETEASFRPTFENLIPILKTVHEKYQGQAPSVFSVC
Procedure: as §1, §2, §3

JAK1 = molecular target: T4, JAK1 (Homo sapiens, UniProt P23458); experiment: Functional assay of protein kinases (Caliper mobility shift), JAK1; settings: ATP 100 μM, 150 min incubation
T4 construct: purchased Carna Biosciences 08-144
Procedure: as §1, §2, §3

JAK3 = molecular target: T5, JAK3 (Homo sapiens, UniProt P52333); experiment: Functional assay of protein kinases (Caliper mobility shift), JAK3; settings: ATP 8 μM, 30 min incubation
T5 construct: purchased Carna Biosciences 08-046
Procedure: as §1, §2, §3

T4 sequence (P23458 850-1154 limits assumed): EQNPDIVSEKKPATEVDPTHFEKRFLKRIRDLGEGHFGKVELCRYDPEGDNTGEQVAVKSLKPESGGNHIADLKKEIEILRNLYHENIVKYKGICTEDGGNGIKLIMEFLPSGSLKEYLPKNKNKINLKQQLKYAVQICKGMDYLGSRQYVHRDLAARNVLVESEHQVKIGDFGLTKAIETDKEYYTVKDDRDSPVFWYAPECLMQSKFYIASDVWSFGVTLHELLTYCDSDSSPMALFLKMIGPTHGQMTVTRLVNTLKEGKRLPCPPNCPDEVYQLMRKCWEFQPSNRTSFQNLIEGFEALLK
T2 sequence (O60674 826-1132 limits assumed): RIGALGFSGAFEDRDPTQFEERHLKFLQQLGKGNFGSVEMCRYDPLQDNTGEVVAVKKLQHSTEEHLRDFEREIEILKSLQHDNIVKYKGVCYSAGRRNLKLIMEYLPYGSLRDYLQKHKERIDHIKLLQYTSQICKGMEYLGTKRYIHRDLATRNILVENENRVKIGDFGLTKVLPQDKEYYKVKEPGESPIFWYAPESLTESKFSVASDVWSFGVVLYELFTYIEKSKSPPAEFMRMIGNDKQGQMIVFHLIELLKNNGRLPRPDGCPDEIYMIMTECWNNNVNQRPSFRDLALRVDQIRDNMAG
T1 sequence (Q16584 whole entry): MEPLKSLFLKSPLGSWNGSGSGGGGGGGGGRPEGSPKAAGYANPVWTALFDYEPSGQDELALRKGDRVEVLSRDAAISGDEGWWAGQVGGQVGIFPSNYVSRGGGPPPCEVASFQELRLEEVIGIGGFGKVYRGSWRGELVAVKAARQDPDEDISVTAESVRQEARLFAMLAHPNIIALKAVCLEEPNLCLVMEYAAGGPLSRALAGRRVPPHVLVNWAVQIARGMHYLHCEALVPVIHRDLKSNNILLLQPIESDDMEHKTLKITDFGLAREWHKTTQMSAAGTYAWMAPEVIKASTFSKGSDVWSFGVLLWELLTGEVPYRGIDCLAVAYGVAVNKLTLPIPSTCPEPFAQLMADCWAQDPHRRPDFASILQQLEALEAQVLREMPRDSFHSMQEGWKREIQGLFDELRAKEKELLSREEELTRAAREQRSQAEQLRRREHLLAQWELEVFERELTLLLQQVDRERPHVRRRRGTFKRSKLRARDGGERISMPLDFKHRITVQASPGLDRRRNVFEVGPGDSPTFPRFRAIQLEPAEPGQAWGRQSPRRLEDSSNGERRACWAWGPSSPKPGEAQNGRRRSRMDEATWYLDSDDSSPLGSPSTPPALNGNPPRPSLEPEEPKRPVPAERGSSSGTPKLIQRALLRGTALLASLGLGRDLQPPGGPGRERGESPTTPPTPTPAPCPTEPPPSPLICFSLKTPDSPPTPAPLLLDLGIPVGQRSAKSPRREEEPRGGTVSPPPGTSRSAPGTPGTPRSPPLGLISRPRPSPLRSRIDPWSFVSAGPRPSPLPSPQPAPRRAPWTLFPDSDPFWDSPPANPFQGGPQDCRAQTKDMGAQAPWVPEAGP
T5 sequence (P52333 795-1124 limits assumed): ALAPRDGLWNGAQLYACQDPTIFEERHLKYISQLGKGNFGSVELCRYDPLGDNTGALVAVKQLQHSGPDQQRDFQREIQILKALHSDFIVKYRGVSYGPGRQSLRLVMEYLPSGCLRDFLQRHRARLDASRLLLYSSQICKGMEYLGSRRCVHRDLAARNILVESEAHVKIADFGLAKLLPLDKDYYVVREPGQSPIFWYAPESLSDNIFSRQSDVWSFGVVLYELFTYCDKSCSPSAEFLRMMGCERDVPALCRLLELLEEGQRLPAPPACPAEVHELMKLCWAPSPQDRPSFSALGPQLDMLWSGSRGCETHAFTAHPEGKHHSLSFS

SMILES | pIC50 (Human MLK3) | pIC50 (JAK2) | pIC50 (TYK2) | pIC50 (JAK1) | pIC50 (JAK3)
O=C(N[C@H]1CC[C@@H](C(=O)O)CC1)c1cccn2c(=O)c3cc(C4CC4)ccc3nc12 [Example 3, (1S,4S)-4-(2-cyclopropyl-11-oxo-11H-pyrido[2,1-b]quinazoline-6-carboxamido)cyclohexane-1-carboxylic acid] | > 7.00 | ≤ 6.00 | > 7.00 | ≤ 6.00 | > 7.00
O=C(NC12CCC(C(=O)O)(CC1)CC2)c1cccn2c(=O)c3cc(C4CC4)ccc3nc12 [Example 6, 4-(2-cyclopropyl-11-oxo-11H-pyrido[2,1-b]quinazoline-6-carboxamido)bicyclo[2.2.2]octane-1-carboxyli acid] | > 7.00 | ≤ 6.00 | 6.00 to 7.00 | ≤ 6.00 | 6.00 to 7.00
Cc1cc(C(=O)NC2CCC(C(=O)O)CC2)c2nc3ccccc3c(=O)n2c1 (stereo not drawn) [Example 10, 4-(8-methyl-11-oxo-11H-pyrido[2,1-b]quinazoline-6-carboxamido)cyclohexane-1-carboxylic acid] | ≤ 6.00 | ≤ 6.00 | > 7.00 | ≤ 6.00 | 6.00 to 7.00
O=C(N[C@H]1CC[C@@H](C(=O)O)CC1)c1cccn2c(=O)c3ccccc3nc12 [Example 13, (1S,4S)-4-(11-oxo-11H-pyrido[2,1-b]quinazoline-6-carboxamido)cyclohexane-1-carboxylic add] | 6.00 to 7.00 | ≤ 6.00 | 6.00 to 7.00 | ≤ 6.00 | 6.00 to 7.00
O=C(N[C@H]1CC[C@@H](C(=O)O)CC1)c1cccn2c(=O)c3cc(N4CCOCC4)ccc3nc12 [Example 14, (1S,4S)-4-(2-morpholino-11-oxo-11H-pyrido[2,1-b]quinazoline-6-carboxamido)cyclohexane-1-carboxylic acid] | > 7.00 | ≤ 6.00 | > 7.00 | ≤ 6.00 | > 7.00
O=C(N[C@H]1CC[C@@H](C(=O)O)CC1)c1cccn2c(=O)c3cc(-c4ccc(F)cc4)ccc3nc12 [Example 16, (1S,4S)-4-(2-(4-fluorophenyl)-11-oxo-11H-pyrido[2,1-b]quinazoline-6-carboxamido)cyclohexane-1-carboxylic acid] | > 7.00 | ≤ 6.00 | > 7.00 | ≤ 6.00 | > 7.00
O=C(N[C@H]1CC[C@@H](C(=O)O)CC1)c1cccn2c(=O)c3cc(-c4ccncc4)ccc3nc12 [Example 17, (1S,4S)-4-(11-oxo-2-(pyridin-4-yl)-11H-pyrido[2,1-b]quinazoline-6-carboxamido)cyclohexane-1-carboxylic acid] | > 7.00 | ≤ 6.00 | > 7.00 | ≤ 6.00 | > 7.00
COc1ccc2nc3c(C(=O)NC4CCC(C(=O)O)CC4)cccn3c(=O)c2c1 (stereo not drawn) [Example 20, 4-(2-methoxy-11-oxo-11H-pyrido[2,1-b]quinazoline-6-carboxamido)cyclohexane-1-carboxylic acid] | > 7.00 | – | 6.00 to 7.00 | – | > 7.00
N#Cc1ccc2nc3c(C(=O)NC4CCC(C(=O)O)CC4)cccn3c(=O)c2c1 (stereo not drawn) [Example 21, 4-(2-cyano-11-oxo-11H-pyrido[2,1-b]quinazoline-6-carboxamido)cyclohexane-1-carboxylic add] | ≤ 6.00 | ≤ 6.00 | ≤ 6.00 | ≤ 6.00 | 6.00 to 7.00
O=C(NC1CCC(C(=O)O)CC1)c1cccn2c(=O)c3cc(Cl)ccc3nc12 (stereo not drawn) [Example 23, 4-(2-chloro-11-oxo-11H-pyrido[2,1-b]quinazoline-6-carboxamido)cyclohexane-1-carboxylic add] | – | ≤ 6.00 | 6.00 to 7.00 | ≤ 6.00 | 6.00 to 7.00
O=C(NC1CCC(C(=O)O)CC1)c1cccn2c(=O)c3cc(Br)ccc3nc12 (stereo not drawn) [Example 24, 4-(2-bromo-11-oxo-11H-pyrido[2,1-b]quinazoline-6-carboxamido)cyclohexane-1-carboxylic acid] | – | ≤ 6.00 | 6.00 to 7.00 | ≤ 6.00 | 6.00 to 7.00
